23 molecules from patent US5789432A, “Aromatase-inhibiting composition containing azole derivative” (Kureha Kagaku Kogyo Kabushiki Kaisha, priority 1993, dated 1998) can be followed below.

This assay concerns the target T1, Aromatase (Homo sapiens, UniProt P11511).
T1 construct: Microsomes of human placenta; from tissue; host or cells: human placenta, microsomes
T1 sequence (P11511 1-503): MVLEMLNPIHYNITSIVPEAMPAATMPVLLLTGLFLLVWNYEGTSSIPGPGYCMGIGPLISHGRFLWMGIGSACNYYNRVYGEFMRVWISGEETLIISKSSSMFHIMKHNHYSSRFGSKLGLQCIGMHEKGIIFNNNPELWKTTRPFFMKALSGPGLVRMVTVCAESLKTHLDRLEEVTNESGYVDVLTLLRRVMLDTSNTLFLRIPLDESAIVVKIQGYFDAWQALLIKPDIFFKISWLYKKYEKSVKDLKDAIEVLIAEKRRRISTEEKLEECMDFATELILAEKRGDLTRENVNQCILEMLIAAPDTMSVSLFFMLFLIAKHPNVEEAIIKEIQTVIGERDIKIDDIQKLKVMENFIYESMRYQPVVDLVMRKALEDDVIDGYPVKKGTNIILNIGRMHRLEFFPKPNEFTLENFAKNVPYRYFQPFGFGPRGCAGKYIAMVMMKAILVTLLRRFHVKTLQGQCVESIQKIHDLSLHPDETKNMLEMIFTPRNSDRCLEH
The assay can be described thus: Aromatase-inhibiting activity (radiometric, H^14COOH release; method of Covey et al.). In kind it is biochemical. As for the experimental part: The aromatase-inhibiting activity was measured basically according to the method described in D. F. Covey et al: BBRC […], 81-86, 1988. The aromatase-inhibiting activity of the azole derivatives used in the present invention was evaluated in terms of 50% aromatase activity-inhibiting concentration (IC50) of the derivatives.
The aromatase-inhibiting activity of each compound was measured according to the method of Covey et al: BBRC, 157 (1), 81-86, 1988. Radioactivity of a by-product H^14 COOH released from a ^14 C-labeled substrate by the action of aromatase was measured to radiometrically determine aromatase-inhibiting activity of the compounds. The aromatase-inhibiting activity of the test compound is shown by 50% aromatase activity-inhibiting concentration (IC50) of the compound.
An aromatase reaction system of the composition shown below in 67 mM phosphate buffer solution (0.5 ml) was incubated at 37° C. for 30 minutes with shaking. Chloroform (5 ml) was added to the reaction solution to stop the reaction. The reaction solution was vigorously stirred and then centrifuged to recover the by-product (H^14 COOH) of the aromatase reaction in the aqueous layer. The aqueous layer (0.1 ml) was collected and mixed with a liquid scintillation cocktail (4 ml) to measure its radioactivity.
(1) Aromatase: Microsomes of human placenta (0.1 mg/ml, protein concentration).
(2) Substrate: [19-^14 C] 4-Androstene-3,17-dione (1×10^-6 M; 2 kBq/ml).
(3) Coenzymes: Nicotinamide adenine dinucleotide phosphate, reduced form (2×10^-3 M), glucose-6-phosphate (4×10^-3 M) and glucose-6-phosphate dehydrogenase (4 U/ml).
Radioactivity of the reaction system exclusive of (1) was supposed to be background radioactivity as 100% control of aromatase inhibition. Radioactivity of the reaction system exclusive of (4) was supposed to be that of negative control as 0% of aromatase inhibition. […] 4-Hyroxyandrostenedione was used as a reference compound.
The aromatase inhibiting activities (IC50) of the optical isomers (I-3 (-) and I-3 (+)) were determined in the same way as in Example 6.

[1] abbreviates: Table 1, microsomes of human placenta, [19-14C] 4-androstene-3,17-dione 1×10^-6 M, 37° C., 30 minutes, read-out: IC50 (50% aromatase activity-inhibiting concentration).
Where [2] appears, read: read-out: IC50 of optical isomers, Example 7, same way as in Example 6.

Read-outs that look alike come from different tables or passages of the source.

Molecule `O[C@@]1(Cc2ccc(Cl)cc2)CCC[C@@H]1Cn1ccnc1` (relative stereo) [Compound I-4, 1-(4-chlorobenzyl)-t-2-(1H-imidazol-1-ylmethyl)cyclopentan-r-1-ol] displayed an IC50 of 20 nM.
With `O[C@@]1(Cc2ccccc2)CCC[C@@H]1Cn1ccnc1` (relative stereo) [Compound I-5, 1-(Benzyl)-t-2-(1H-imidazol-1-ylmethyl)cyclopentan-r-1-ol], the IC50 under setting [1] turned out to be 50 nM.
With `O[C@@]1(Cc2ccc(Cl)cc2)CCC[C@H]1Cn1cncn1` (relative stereo) [Compound I-6, 1-(4-Chlorobenzyl)-c-2-(1H-1,2,4-triazol-1-ylmethyl)cyclopentan-r-1-ol], the IC50 was determined as 40 nM.
Regarding `O[C@@]1(Cc2ccc(Cl)cc2Cl)CCC[C@H]1Cn1cncn1` (relative stereo) [Compound I-7, 1-(2,4-Dichlorobenzyl)-c-2-(1H-1,2,4-triazol-1-ylmethyl)cyclopentan-r-1-ol], the IC50 amounted to 10 nM.
The same measure, in the same setting: in the case of `O[C@@]1(Cc2ccc(F)cc2F)CCC[C@H]1Cn1cncn1` (relative stereo) [Compound I-8, 1-(2,4-Difluorobenzyl)-c-2-(1H-1,2,4-triazol-1-ylmethyl)cyclopentan-r-1-ol] it was 12 nM.
On the same count and under the same terms, as for `O[C@@]1(Cc2ccc(-c3ccccc3)cc2)CCC[C@H]1Cn1cncn1` (relative stereo) [Compound I-9, 1-(p-Biphenylmethyl)-c-2-(1H-1,2,4-triazol-1-ylmethyl)cyclopentan-r-1-ol], the figure is 13 nM.
Take `O[C@@]1(c2ccc(Cl)cc2)CCC[C@H]1Cn1ccnc1` (relative stereo) [Compound I-10, 1--(4-Chlorophenyl)-c-2-(1H-imidazol-1-ylmethyl)cyclopentan-r-1-ol]: the IC50 under setting [1] is 30 nM.
For `O[C@@]1(c2ccccc2)CCC[C@H]1Cn1ccnc1` (relative stereo) [Compound I-11, 1-(Phenyl)-c-2-(1H-imidazol-1-ylmethyl)cyclopentan-r-1-ol], the IC50 under setting [1] amounted to 35 nM.
For `O[C@@]1(c2ccc(Cl)cc2)CCC[C@H]1Cn1cncn1` (relative stereo) [Compound I-12, 1-(4-Chlorophenyl)-c-2-(1H-1,2,4-triazol-1-ylmethyl)cyclopentan-r-1-ol], the IC50 stood at 10 nM.
Still for that read-out and setting: in the case of `CC1(C)C[C@@H](Cc2ccc(Cl)cc2)[C@](O)(Cn2ccnc2)C1` (relative stereo) [Compound I-19, c-2-(4-Chlorobenzyl)-1-(1H-imidazol-1-ylmethyl)-4,4-dimethylcyclopentan-r-1-ol] it was 65 nM; in that of `CC1(C)C[C@@H](Cc2ccc(Cl)cc2)[C@](O)(Cn2cncn2)C1` (relative stereo) [Compound I-20, c-2-(4-Chlorobenzyl)-4,4-dimethyl-1-(1H-1,2,4-triazol-1-ylmethyl)cyclopentan-r-1-ol], 40 nM.
The molecule `O[C@@]1(Cc2ccc(Cl)cc2)CCC[C@H]1Cn1ccnc1` (stereo in doubt) [Compound I-3, 1-(4-chlorobenzyl)-c-2-(1H-imidazol-1-ylmethyl)cyclopentan-r-1-ol] came in with an IC50 of 40 nM.
As to `O[C@@]1(Cc2ccc(Cl)cc2)CCC[C@H]1Cn1ccnc1` (stereo in doubt) [Compound I-13, nitrate of 1-(4-chlorobenzyl)-c-2-(1H-imidazol-1-ylmethyl)-cyclopentan-r-1-ol], the IC50 (read-out: IC50 (50% aromatase activity-inhibiting concentration), Table 1, microsomes of human placenta, [19-14C] 4-androstene-3,17-dione 1×10^-6 M, 37° C., 30 minutes) came out at 55 nM.
`O[C@]1(Cc2ccc(Cl)cc2)CCC[C@@H]1Cn1ccnc1` (stereo in doubt) [I-3 (+), 1-(4-chlorobenzyl)-c-2-(1H-imidazol-1-ylmethyl)cyclopentan-r-1-ol]: under setting [2], the IC50 amounted to 80 nM.
In the case of `O[C@]1(Cc2ccc(Cl)cc2)CCC[C@@H]1Cn1ccnc1` (stereo in doubt) [I-3 (-), 1-(4-chlorobenzyl)-c-2-(1H-imidazol-1-ylmethyl)cyclopentan-r-1-ol], the IC50 under setting [2] was determined as 4 nM.
As for `CC(C)[C@](O)(CCn1ccnc1)c1ccc(Cl)cc1` [Compound I-1, (3R)-3-(4-chlorophenyl)-1-(1H-imidazol-1-yl)-4-methylpentan-3-ol], the IC50 under setting [1] amounted to 10 nM.
The molecule `CC(C)[C@@](O)(CCn1ccnc1)Cc1ccc(Cl)cc1` [Compound I-2, (3S)-3-(4-chlorobenzyl)-1-(1H-imidazol-1-yl)-4-methylpentan-3-ol] yielded an IC50 of 10 nM.
In the case of `CC1(C)CC[C@@H]2Cc3ccc(Cl)cc3O[C@]21Cn1cncn1` [Compound I-14, (3aR,9aR)-6-chloro-2,3,9,9a-tetrahydro-3,3-dimethyl-3a(1H)-(1H-1,2,4-triazol-1-ylmethyl)cyclopenta[b][1]benzopyran], the IC50 is 12 nM.
As to `CC1(C)CC[C@@H]2Cc3ccc(Cl)cc3O[C@]21Cn1ccnc1` [Compound I-15, (3aR,9aR)-6-Chloro-2,3,9,9a-tetrahydro-3a(1H)-(1H-imidazol-1-ylmethyl)-3,3-dimethylcyclopenta[b][1]benzopyran], the IC50 under setting [1] was 45 nM.
Same read-out and setting: in the case of `Clc1ccc2c(c1)O[C@]1(Cn3ccnc3)CCC[C@@H]1C2` [Compound I-16, (3aR,9aR)-6-Chloro-2,3,9,9a-tetrahydro-3a(1H)-(1H-imidazol-1-ylmethyl)cyclopenta[b][1]benzopyran] it was 30 nM.
For `Clc1ccc2c(c1)O[C@]1(Cn3cncn3)CCC[C@@H]1C2` [Compound I-17, (3aR,9aR)-6-Chloro-2,3,9,9a-tetrahydro-3a(1H)-(1H-1,2,4-triazol-1-ylmethyl)cyclopenta[b][1]benzopyran], the IC50 is 30 nM.
`Fc1cccc2c1C[C@H]1CCC[C@@]1(Cn1cncn1)O2` [Compound I-18, (3aR,9aR)-8-Fluoro-2,3,9,9a-tetrahydro-3a(1H)-(1H-1,2,4-triazol-1-ylmethyl)cyclopenta[b][1]benzopyran] displayed an IC50 of 13 nM.
`C[C@]12CCC(=O)C(O)=C1CC[C@@H]1[C@@H]2CC[C@]2(C)C(=O)CC[C@@H]12` [Reference, 4-Hyroxyandrostenedione, reference compound] registered an IC50 of 20 nM.
